Assays:
[1] = test system: human having a sense of fatigue; test: VAS (Visual Analog Scale) analysis before/after mental and physical loads; type: in vivo; details: for VAS, Clear-headedness (FIG. 5) / VAS, Concentration (FIG. 5) / VAS, Feeling of body heaviness (FIG. 5) / VAS, Frustration (FIG. 5) / VAS, Mood (FIG. 5) / VAS, Motivation (FIG. 5): vs control group
Protocol: (§1) A placebo-controlled, randomized, double-blind, parallel-group study was employed for ingestion of the test food, and two groups, namely, the control group (placebo group) with ingestion of a capsule not containing astaxanthin and the astaxanthin group with ingestion of a capsule containing 6 mg of astaxanthin (120 mg of Haematococcus algae extract and 10 mg of tocotrienol mixture derived from palm oil) were compared through a double-blind method. For ingestion of the test food, the subjects were instructed to ingest one capsule twice daily (total 12 mg of astaxanthin (240 mg of Haematococcus algae extract and 20 mg of tocotrienol mixture derived from palm oil) in two capsules per day), one after breakfast (or after the first meal of the day if no breakfast was taken) and the other after dinner, with water or lukewarm water within 30 min of eating. The overall duration for ingestion was 8 weeks (12 weeks only for the OSA sleep analysis). The subjects were also instructed to record their test food ingestion, drinking, and exercise in a diary every day, from the first day to the last day of ingestion.
The assessment to the subjects consisted of seven questions: “Sense of Fatigue (“sense of fatigue caused by mental load” or “sense of fatigue caused by mental load and physical load”) (best sensation with no fatigue—worst sensation of being too tired to do anything)”, “Clear-headedness (very clear—very dull)”, “Concentration (able to concentrate very easily—unable to concentrate at all)”, “Motivation (highly motivated—totally unmotivated)”, “Mood (very happy—as depressed as I can be)”, “Frustration (not frustrated at all—very frustrated)”, and “Feeling of body heaviness (feeling my body is very light—feeling my body is very heavy)”. For each question, the subjects were instructed to draw a vertical line by intuition on a 100 mm horizontal line to indicate their condition at the time, with the far left end indicating the best condition and the far right end indicating the worst condition. A VAS score was derived by measuring with a ruler the distance from the far left end to the intersection with the vertical line. VAS analysis was performed five times in total in one day: in the morning of the day of assessment (before load application), after application of a physical load and a mental load, at the end of the assessment visit (after a rest period), after mental load application (calculation load; Uchida-Kraepelin test), and after a rest period after mental load application. To determine transient changes in fatigue, the load-induced change was calculated by subtracting the pre-load value from the values after mental load application, after a rest period after mental load application, after application of both loads, and after a rest period therefor. In addition, to determine the effect of test food ingestion alone, ingestion-induced change was calculated by subtracting the pre-load (pre-ingestion) value at week 0 from the pre-load value after 4-week ingestion and after 8-week ingestion.

[2] = test system: human having a sense of fatigue; test: POMS (Profile of Mood States) analysis; type: in vivo
Protocol: as §1
Using the self-administered POMS 2 in Japanese, adult short version (Kanekoshobo, Tokyo, Japan), the subjects answered 35 questions by rating their “current mood” on a 5-point scale (0=not at all; 1=a little; 2=moderately; 3=quite a bit; 4=extremely). Responses to each question were scored according to the POMS scoring system for the seven scales: anger-hostility, confusion-bewilderment, depression-dejection, fatigue-inertia, tension-anxiety, vigor-activity, and friendliness, and the raw scores were converted into TMD scores with a conversion table. The POMS was administered 3 times in total in one day: in the morning of the day of assessment (before load application), after mental load application (calculation load; Uchida-Kraepelin test), and at the end of the day of assessment (after the rest period). To determine transient changes in fatigue, the load-induced change was calculated by subtracting the pre-load value from the values after mental load application and after a rest period therefor. In addition, to determine the effect of test food ingestion alone, ingestion-induced change was calculated by subtracting the pre-load (pre-ingestion) value at week 0 from the pre-load value after 8-week ingestion.

salivary cortisol = test: Measurement of salivary cortisol (CLIA); type: in vivo, human; details: for salivary cortisol concentration: after 8-week ingestion
Description: Salivary cortisol, which was examined as a biochemical index for a mental load, is used as a stress marker because of simplicity of measurement due to the high correlation with blood cortisol, and known to be increased by an acute mental stress, for example, caused at making a speech in front of others or doing mental calculation or by continuous, high-intensity exercise. Because the salivary cortisol concentration is known to show circadian variation, being high in the morning and then declining as the night approaches, mental load application (calculation load; Uchida-Kraepelin test) was performed in the morning in this study. Salivary secretory immunoglobulin A (sIgA) is an antibody produced by B cells that inhibits the proliferation of pathogens on the mucosa of the oral cavity, airway, intestines, and other organs. It is known that reduction of sIgA in saliva is associated with the development of upper respiratory tract infection and that salivary sIgA concentration decreases under chronic stress and increases in a relaxed state.
Prior to saliva sampling, the subjects were instructed to brush their teeth and place a cotton swab (Salivette) in the mouth for 2 minutes without chewing to thoroughly soak the cotton swab with saliva. Saliva samples were collected twice, in the morning of the day of assessment (before load application) and after mental load application (calculation load; Uchida-Kraepelin test). Salivary cortisol concentration was measured with a competitive chemiluminescent immunoassay (CLIA) kit (Chemilumi ACS-E Cortisol II; Siemens Healthcare Diagnostics Inc.).

[3] = previously: 12 mg/day of astaxanthin and 40 mg/day of tocotrienol for eight weeks; cited from earlier work
[4] = as high as that of vitamin E; cited from earlier work
[5] = after application of both loads, after 4-week ingestion, vs control group (FIG. 4)
[6] = after application of both loads, after 8-week ingestion, vs control group (FIG. 4)
[7] = after application of both loads
[8] = after the rest period (after both loads), after 4-week ingestion, vs control group (FIG. 4)
[9] = after the rest period (after both loads), after 8-week ingestion, vs control group (FIG. 4)
[10] = after the rest period (after both loads)

CC1=C(/C=C/C(C)=C/C=C/C(C)=C/C=C/C=C(C)/C=C/C=C(C)/C=C/C2=C(C)C(=O)C(O)CC2(C)C)C(C)(C)CC(O)C1=O (stereo not drawn) [astaxanthin, 3,3′-dihydroxy-β,β-carotene-4,4′-dione]
VAS load-induced change, Clear-headedness [1, 5]: marginally significant improvement and enhancement | VAS load-induced change, Mood [1, 5]: significant improvement | VAS load-induced change, Clear-headedness [1, 6]: marginally significant improvement and enhancement | VAS load-induced change, Concentration [1, 6]: marginally significant improvement and enhancement | VAS load-induced change, Feeling of body heaviness [1, 6]: significant improvement | VAS load-induced change, Mood [1, 6]: marginally significant improvement | VAS load-induced change, Motivation [1, 6]: marginally significant enhancement | VAS, Clear-headedness (FIG. 5) [1, 7]: marginally significant improvement | VAS, Concentration (FIG. 5) [1, 7]: marginally significant improvement | VAS, Feeling of body heaviness (FIG. 5) [1, 7]: significant improvement | VAS, Frustration (FIG. 5) [1, 7]: resolution of frustration | VAS, Mood (FIG. 5) [1, 7]: marginally significant improvement | VAS, Motivation (FIG. 5) [1, 7]: marginally significant improvement | VAS load-induced change, Frustration ([1]; after mental load application, after 8-week ingestion, vs control group (FIG. 4)): significant improvement | VAS, Clear-headedness (FIG. 5) ([1]; after mental load application): improvement | VAS, Concentration (FIG. 5) ([1]; after mental load application): improvement | VAS, Feeling of body heaviness (FIG. 5) ([1]; after mental load application): reduction of feeling of body heaviness | VAS, Frustration (FIG. 5) ([1]; after mental load application): significant improvement | VAS, Mood (FIG. 5) ([1]; after mental load application): improvement | VAS, Motivation (FIG. 5) ([1]; after mental load application): improvement | VAS load-induced change, Clear-headedness [1, 8]: marginally significant improvement and enhancement | VAS load-induced change, Mood [1, 8]: marginally significant improvement | VAS load-induced change, Clear-headedness [1, 9]: marginally significant improvement and enhancement | VAS load-induced change, Concentration [1, 9]: marginally significant improvement and enhancement | VAS load-induced change, Feeling of body heaviness [1, 9]: marginally significant improvement | VAS load-induced change, Frustration [1, 9]: significant improvement | VAS, Clear-headedness (FIG. 5) [1, 10]: marginally significant improvement | VAS, Concentration (FIG. 5) [1, 10]: marginally significant improvement | VAS, Feeling of body heaviness (FIG. 5) [1, 10]: marginally significant improvement | VAS, Frustration (FIG. 5) [1, 10]: significant improvement | VAS, Mood (FIG. 5) [1, 10]: improvement | VAS, Motivation (FIG. 5) [1, 10]: improvement | POMS ingestion-induced change, Friendliness (F) ([2]; after 8-week ingestion minus pre-ingestion, vs control group (FIG. 6)): significant high value | POMS load-induced change, Vigor-activity (VA) ([2]; after the rest period, after 8-week ingestion, vs control group (FIG. 6)): marginally significant high value | POMS improvement in Vigor-activity (VA) compared with quercetin/isoquercetin ([2]; vs literature: 250 mg quercetin and 100 mg isoquercetin for 42 to 54 days): larger | POMS improvement in Vigor-activity (VA), AH, FI and CB compared with bonito stock ([2]; vs literature: bonito stock morning and evening over two weeks): larger | salivary cortisol concentration after vs before mental load application (salivary cortisol; after 4-week ingestion (FIG. 7)): significantly lower | salivary cortisol concentration (salivary cortisol; after mental load application): 0.38 ± 0.03 µg/dL | salivary cortisol concentration (salivary cortisol; before mental load application): 0.44 ± 0.03 µg/dL | adverse event [3]: No adverse event | antioxidative effect relative to vitamin E [4]: 1000 times
